Holding throughout (assay): NCI-60 cell line screen, 48 h
The test system of test [1] is SW-620 colon.
The subject of test [2] is HCT-15 colon.
For test [3], the system named is OVCAR-4 ovarian.
For test [4], the system named is SK-OV-3 ovarian.
Test [5] deals with K-562 leukemia.
Test [6] has as its system UACC-62 melanoma.
In test [7] the test system is SK-MEL-28 melanoma.
In test [8] the test system is RPMI-8226 leukemia.
The subject of test [9] is NCI-H460 lung.
Test [10] deals with EKVX NSCLC.

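Results reflect a 48-hour exposure of cells in 96-well plates to compound at five concentrations. The concentration for 50% growth inhibition is given as GI50. The concentration for full growth arrest is given as TGI.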

With `C[C@@H]1N=C(c2ccc(Br)cc2)Nc2nc3ccccn3c2C1=O`, the GI50 is 3.75 µM in test [1]; 3.64 µM in test [2]; 17.9 µM in test [3]; 4.41 µM in test [4]; 4.13 µM in [5]; 4.35 µM in [6]. The GI50 in test [7] was 9.51 µM; in test [8], 7310 nM; in test [9] it was 3.06 µM. Moreover, the TGI in [1], in [2], in test [3], in [4], in [5] and in test [6] was greater than 100 µM each time. In addition, the TGI in test [7], in test [8] and in test [9] was greater than 100 µM throughout.
For the molecule `CCCN1CCN(c2ccc3nc(-c4ccc5nc(-c6cc(OC)ccc6OC)[nH]c5c4)[nH]c3c2)CC1`, the GI50 in test [1] was 1.86 µM; in test [2] it was 1.74 µM; in test [3] it was 1.98 µM; in [10], 1.81 µM; in test [6], 19 µM; in [7], 18.9 µM. Also, the GI50 was 2170 nM in test [8] and 1.91 µM in test [9]. For the same molecule, the TGI was 3.57 µM in test [1]; 3.36 µM in test [2]; 3.85 µM in [3]; 3.35 µM in test [10]; 34.7 µM in test [6]; 35.9 µM in [7]. Further, the TGI in [8] amounted to 4.79 µM; in [9], 3.56 µM.
As for `CCc1nc(N)nc(C(=O)NCCNC(=O)c2nc(N)nc(CC)c2C)c1C`, the TGI in [1], in [2], in test [3], in test [10], in test [5] and in test [6] was greater than 100 µM throughout. Moreover, the TGI in [7], in test [8] and in test [9] was greater than 100 µM each time.
As for `Cc1ccc(/C=C/C(=O)c2sc(-c3cccnc3)nc2C)cc1`, the TGI in test [1], in test [2], in [10], in [4], in test [5] and in test [6] was greater than 100 µM in each case. The TGI in test [8] and in [9] was greater than 100 µM in each case.
As to `Cc1cc2cc3c(C)cc(=O)oc3c(C)c2o1`, the TGI in [1], in test [2], in test [3], in test [10], in test [5] and in test [6] was greater than 100 µM each time. Besides, the TGI in [7], in test [8] and in test [9] was greater than 100 µM each time.
As for `CCC[CH2][Sn]([CH2]CCC)([O]C(=O)C(N)CSC)[O]C(=O)C(N)CSC` (centres undefined), the GI50 in [1] was 6.08 µM; in test [2], 11.6 µM; in test [3] it was 13 µM; in [10], 12.1 µM; in test [5], 0.846 µM; in test [6] it was 10.4 µM. Moreover, the GI50 in [7] is 5.86 µM; in [8] it was 2160 nM; in [9], 29.7 µM. Further, the TGI is 23 µM in test [1]; 25.4 µM in test [2]; 26.1 µM in test [3]; 27.1 µM in [10]; 7.81 µM in [5]; 23 µM in test [6]. Moreover, the TGI was determined as 18.2 µM in [7], 7.58 µM in test [8] and 90.1 µM in test [9].
As to `CC(=O)Nc1c(C)ccc2c1C(=O)c1ccccc1C2=O`, the TGI in test [1], in test [2], in test [3], in test [4], in test [5] and in [6] was greater than 100 µM throughout. The TGI in [8] and in test [9] was greater than 100 µM each time.
In the case of `NC(=N\N=C/c1cccc([N+](=O)[O-])c1)/C(N)=N\N=C/c1cccc([N+](=O)[O-])c1`, the GI50 in [1], in test [2], in [10], in test [4], in test [5] and in [6] was greater than 100 µM each time. The GI50 in [7] was greater than 100 µM; in [8], greater than 100000 nM. Further, the TGI in [1], in test [2], in test [10], in test [4], in [5] and in test [6] was greater than 100 µM each time. For the same molecule, the TGI in test [7] and in test [8] was greater than 100 µM throughout.
Take `O=C(Nc1cc[c]([Sb](=[O])([OH])[OH])cc1)c1ccccc1`: the GI50 in test [1], in test [2], in test [3], in test [10], in [5] and in test [6] was greater than 100 µM in each case. Also, the GI50 in [7] and in test [9] was greater than 100 µM each time. Further, the TGI in test [1], in [2], in test [3], in test [10], in test [5] and in [6] was greater than 100 µM throughout. The TGI in test [7] and in test [9] was greater than 100 µM each time.
`O=C1NC(=S)NC(=O)C1=Cc1cccc2cc3ccccc3cc12`: the TGI in test [1] was greater than 25.2 µM; in test [2], 4.07 µM; in [3], 4.75 µM; in test [10] it was 8.9 µM; in [4] it was 8.79 µM; in test [5], greater than 24 µM. The TGI in test [6] is 3.53 µM; in test [7], 6.58 µM; in test [9] it was 4.82 µM.
As to `CN(C)CC/C(=N\Nc1ccccc1)c1ccccc1`, the TGI in [2] was 27.6 µM; in [3] it was 32.4 µM; in test [10], 41.2 µM; in test [4] it was 34.7 µM; in [5], 7.54 µM; in test [6], greater than 100 µM. In test [8], this molecule showed a TGI greater than 100 µM.

Values taken from PubChem BioAssay (NCI).
